Source: US11103478B2, “Anavex2-73 for the treatment of alzheimer's disease” (ANAVEX LIFE SCIENCES CORP., priority 2017, dated 2021)

Key:
sigma-1 receptor = sigma-1 receptor (Homo sapiens, UniProt Q99720); conditions: believed to bind; cited from earlier work
[1] = tested on: mild-to-moderate Alzheimer's disease patients; assay: Phase 2a trial: EEG peak alpha frequency (PAF); type: in vivo, human; conditions: 12 patients, day 36
Description: The 36-day multicenter randomized clinical trial included both male and female mild-to-moderate Alzheimer's disease patients. ANAVEX2-73 was administered to twelve subjects as an add-on therapy to the donepezil current standard of care. ANAVEX2-73 was administered according to a two-period on-off-on cross-over dosing regimen in which the subjects were administered ANAVEX2-73 for 12 days (1st period) followed by a 12-day wash-out period before being administered ANAVEX2-73 for a second 12-day period (2nd period). Those subjects that were administered ANAVEX2-73 by oral administration during the 1st period were administered ANAVEX2-73 intravenously during the 2nd period, and vice versa. […]
Subjects were tested using a three-stimulus oddball paradigm. […] Electroencephalographic (EEG) activity was recorded from seven electrode sites (Fz, Cz, Pz, F3, P3, F4, and P4) of the international 10-20 system using a COGNISION™ Headset (Neuronetrix). […]
FIG. 8 illustrates electroencephalographic (EEG) peak alpha frequency (PAF) data for twelve patients at baseline and day 36 following the on-off-on ANAVEX2-73 dosing regimen, as compared to a healthy control group. Electroencephalographic (EEG) peak alpha frequency (PAF), measured in Hz, is a distinctive individual “fingerprint” that has been correlated to cognitive performance and reflects a trait or state of cognitive preparedness. […]

[2] = tested on: mild-to-moderate Alzheimer's disease patients; assay: Phase 2a trial: auditory P300 event related potential (three-stimulus oddball paradigm); type: in vivo, human
Description: (§1) The 36-day multicenter randomized clinical trial included both male and female mild-to-moderate Alzheimer's disease patients. ANAVEX2-73 was administered to twelve subjects as an add-on therapy to the donepezil current standard of care. ANAVEX2-73 was administered according to a two-period on-off-on cross-over dosing regimen in which the subjects were administered ANAVEX2-73 for 12 days (1st period) followed by a 12-day wash-out period before being administered ANAVEX2-73 for a second 12-day period (2nd period). Those subjects that were administered ANAVEX2-73 by oral administration during the 1st period were administered ANAVEX2-73 intravenously during the 2nd period, and vice versa. About half of the subjects were administered a 30 mg oral dosage form while the other half of subjects were administered a 50 mg oral dosage form. The intravenous dosage was either 3 mg or 5 mg, with about half of the subjects administered 3 mg and the other half administered 5 mg.
Resting electroencephalographic (EEG) activity and event related potentials (EEG/ERP) were used to assess the cognitive effects of ANAVEX2-73 administration. Event related potentials (ERPs) are voltage changes time-locked to some physical or mental occurrence in ongoing electrical brain activity, as recorded by EEG. Event-related potentials (ERPs) provide a sensitive and reliable measure of the cognitive effects associated with early Alzheimer's disease. […] See for example, New Encycl. Neurosci., Oxford Academic Press, p. 13-18 (2009). For example, ERP tests on young presymptomatic individuals who carry mutations in the presenilin-1 and amyloid precursor protein genes show significant changes in ERP patterns years before the onset of behavioral symptoms and the development of Alzheimer's disease. See for example, Neurology 73, 1649-1655 (2009); Neurology 77, 469-475 (2011). […] For instance, ERP markers of cognitive function are increasingly altered in longitudinal studies on individuals with mild cognitive impairment (MCI) and Alzheimer's disease patients. See for example, Clin. Neurophysiol. 122, 1322-1326 (2011); Clin. Neurophysiol. 121, 194-199 (2010). […] See for example, Neurol. Neurochir. Pol. 35 Suppl 3, 37-43 (2001); Clin. Neuropharmacol. 25, 207-215 (2002); Neurosci. Biomed. Eng. 1, 34-39 (2013).
In particular, the auditory P300 component of the ERP has been widely applied in the study of age-related cognitive dysfunction because it is thought to reflect attentional and memory processes. Auditory P300 is a positive deflection occurring at about 300 ms from stimulus onset. It is generated by the activation of multiple neocortical and limbic regions. […]

[3] = tested on: amyloid β25-35 peptide (Aβ25-35) toxicity; conditions: cited from earlier work
[4] = tested on: patients with early signs of Alzheimer's disease; assay: Single-patient examples of intermittent dosing in early Alzheimer's disease (Examples 1-5); type: in vivo, human
From the text: The following examples show uses of ANAVEX2-73 in the treatment of patients with Alzheimer's disease or presenting with the early signs of Alzheimer's disease. The clinical determination that a patient may have Alzheimer's disease or is presenting with early signs of Alzheimer's disease is well known in the art. By way of example, the following references (and all publications cited herein) are incorporated by reference herein in their entireties: Dementia: From Diagnosis to Management—A Functional Approach 1st Edition, Psychology Press (Feb. 17, 2009); Clinician's Guide to Psychological Assessment and Testing: With Forms and Templates for Effective Practice 1st Edition, Springer Publishing Company (Sep. 18, 2012); Neurodegener. Dis. Manag. 5(3), 191-201 (2015); Artif. Intell. Med. 64(1), 59-74 (2015); Clin. Chem. 60(12), 1585-1586 (2014); and Metabolism 64(3 Suppl 1), S47-50 (2014).
(§2) A person presents with early signs of Alzheimer's disease. They are orally administered a pharmaceutical composition containing 30 mg ANAVEX2-73 according to an intermittent dosing regimen where each cycle includes daily administration for 10 days (dosing period) followed by 10 days of no administration (resting period). The patient is administered 30 mg ANAVEX2-73 according to the intermittent dosing regimen for 6 months. Their loss of cognitive function stabilizes during that period.
(§3) A person presents with signs of early onset Alzheimer's disease. They are orally administered a pharmaceutical composition containing 50 mg ANAVEX2-73 according to an intermittent dosing regimen where each cycle includes daily administration for 10 days (dosing period) followed by 20 days of no administration (resting period). Their loss of cognitive function stabilizes during that period.
as §3, with “are” for “are orally”, “3” for “a pharmaceutical composition containing 50”, “mg of” for “mg”, “ANAVEX2-73 intravenously” for “ANAVEX2-73”, “5” for “10”, “period) for one year.” for “period).”
A person presents with signs of early onset Alzheimer's disease. They are administered 5 mg of ANAVEX2-73 intravenously according to an intermittent dosing regimen where each cycle includes daily administration for 14 days (dosing period) followed by 7 days of no administration (resting period) for one year. Their loss of cognitive function stabilizes during that period.
as §2, with “containing 50” for “containing 30”, “for 14” for “for 10”, “by 7” for “by 10”, “administered 50” for “administered 30”, “function is stabilized” for “function stabilizes”

[5] = Randomized, placebo-controlled single ascending dose Phase 1 study in healthy male volunteers; type: in vivo, human
Description: See Poster: A Phase 1 Dose Escalation Study to Investigate Safety, Tolerability, and Pharmacokinetics of ANAVEX2-73 in Healthy Male Subjects, CNS Summit 2014, Boca Raton, Fla., by Ole Voges, Ingo Weigmann, Norman Bitterlich, Christoph Schindler and Christopher Missling. […] Based on the frequency and intensity of […] adverse events (TEAEs) the maximum tolerable dose (MTD) and the minimum intolerable dose (MID) were defined as 55 mg and 60 mg, respectively.

[6] = tested on: muscarinic acetylcholine receptors; conditions: believed to bind; cited from earlier work
[7] = tested on: mild-to-moderate Alzheimer's disease patients; assay: Phase 2a trial: MMSE and Cogstate scales, safety profile; type: in vivo, human
Description: as §1
The results for the twelve subject on-off-on dosing regimen of ANAVEX2-73, shown in FIGS. 5-9, were achieved without any dose optimization. […] An additional 20 subjects will be studied during the remainder of the Phase 2a clinical trial. Phase 2b clinical trials, involving an additional 26-week extension of daily oral dosage administration of ANAVEX2-73 is on-going.

Chain of sigma-1 receptor (Q99720 whole entry, species assumed): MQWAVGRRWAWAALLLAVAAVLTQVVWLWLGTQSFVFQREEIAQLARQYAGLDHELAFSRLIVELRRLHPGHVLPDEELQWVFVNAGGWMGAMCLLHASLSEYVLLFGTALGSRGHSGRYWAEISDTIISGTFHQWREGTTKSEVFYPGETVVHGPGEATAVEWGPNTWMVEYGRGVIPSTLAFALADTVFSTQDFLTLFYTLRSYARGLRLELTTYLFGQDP

In the case of `CN(C)CC1CCOC1(c1ccccc1)c1ccccc1.Cl` (stereo not shown) [ANAVEX2-73, tetrahydro-N,N-dimethyl-2,2-diphenyl-3-furanmethanamine hydrochloride], the “affinity for sigma-1 receptor” value (sigma-1 receptor) is listed as “low micromolar range”, the “EEG peak alpha frequency (PAF) vs baseline” value [1] is listed as “higher” and the “P300 ERP wave: measured cognitive performance vs baseline” value ([2]; 12 patients, day 36, on-off-on regimen (30/50 mg oral, 3/5 mg i.v.), add-on to donepezil) is listed as “improved measured cognitive performance”. The “P300 amplitude, Percentage Increase Over Baseline Data” value ([2]; 12 patients, day 36 vs baseline, hydrochloride) was 38%, the “P300 amplitude change vs historical donepezil at the 1 month time point” value ([2]; day 36 (1 month), change from baseline, donepezil data from the literature) was “about four times higher” and the “percent P300 amplitude change after 1 month vs historical donepezil after 6 months” value ([2]; day 36 (1 month), donepezil data from the literature) was “greater”. For the same compound, the “hyperphosphorylation of Tau on physiological (AT-8) and pathological (AT-100) epitopes” value ([3]; in the dose-range tested) was “attenuated”, the “oxidative stress, caspases induction, cellular loss and learning and memory deficits” value ([3]; mice one week after i.c.v. injection of oligomeric Aβ25-35) was “attenuating” and the “Aβ25-35-induced P-Akt decrease and P-GSK-3β increase” value ([3]; mice, Aβ25-35) was “blocked”. The “Aβ25-35-induced endogenous Aβ1-42 seeding” value ([3]; mouse, in vivo) was “decrease”, the “loss of cognitive function” value ([4]; Example 1: person, 30 mg oral, 10 days on / 10 days off, 6 months) was “stabilizes” and the “loss of cognitive function” value ([4]; Example 2: person, 50 mg oral, 10 days on / 20 days off) was “stabilizes”. For the same compound, the “loss of cognitive function” value ([4]; Example 3: person, 3 mg intravenously, 5 days on / 20 days off, one year) was “stabilizes”, the “loss of cognitive function” value ([4]; Example 4: person, 5 mg intravenously, 14 days on / 7 days off, one year) was “stabilizes” and the “loss of cognitive function” value ([4]; Example 5: person, 50 mg oral, 14 days on / 7 days off, 6 months) was “is stabilized”. For the same compound, the observed adverse events ([5]; human, in vivo) was “moderate and reversible dizziness and headache”, the “QT interval and QTcB” value ([5]; human, in vivo, po) was “did not reveal any clinically significant changes” and the “blood pressure, resting heart rate, vital signs and 12-lead ECG” value ([5]; human, in vivo, po) was “did not show any clinically relevant or dose-dependent changes”. For the same compound, the pharmacokinetics ([5]; human, in vivo, po) was “suitable for daily oral dosing”, the serious adverse events ([5]; human, in vivo, po) was “No serious adverse events occurred” and the “minimum intolerable dose (MID)” value ([5]; male, human, in vivo, po) was 60 mg. The “maximum tolerable dose (MTD)” value ([5]; single oral dose, healthy male volunteers) was 55 mg, the “affinity for muscarinic acetylcholine receptors” value [6] was “low micromolar range” and the “safety profile during Phase 2a” value ([7]; Phase 2a trial) was “consistent with the Phase 1 data”. For the same compound, the “Mini Mental State Examination (MMSE) and Cogstate scale changes” value ([7]; preliminary, 12 patients) was “consistent with the observed trend of the cognitive EEG/ERP effect”.
